How the values were obtained:
Assay in all cases: relative viability (nuclei count vs DMSO), 5 days (fraction); higher = more cells survive
[1] = system: BEN
Summary of the method: (§1)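 Lung cancer cell lines in 1536-well plates got either a single drug or a fixed anchor-drug dose together with five library-drug doses (not always all listed) in √10 steps, by pin tool, on the day after seeding. Nuclei were counted after 5 days, and relative viability is the treated-to-vehicle ratio of nuclei counts. Values are medians of duplicate plates.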

[2] = system: COR-L23
Summary of the method: as §1

[3] = system: HCC-44
Summary of the method: as §1

[4] = system: LU99A
Summary of the method: as §1

[5] = system: LXF-289
Summary of the method: as §1

[6] = system: NCI-H1355
Summary of the method: as §1

[7] = system: NCI-H1437
Summary of the method: as §1

[8] = system: NCI-H1650
Summary of the method: as §1

[9] = system: NCI-H1651
Summary of the method: as §1

[10] = system: NCI-H1666
Summary of the method: as §1

[11] = system: NCI-H1755
Summary of the method: as §1

[12] = system: NCI-H1792
Summary of the method: as §1

[13] = system: NCI-H1993
Summary of the method: as §1

[14] = system: NCI-H2085
Summary of the method: as §1

[15] = system: NCI-H2087
Summary of the method: as §1

[16] = system: NCI-H2170
Summary of the method: as §1

[17] = system: NCI-H460
Summary of the method: as §1

[18] = system: NCI-H520
Summary of the method: as §1

[19] = system: PC-14
Summary of the method: as §1

[20] = system: SK-MES-1
Summary of the method: as §1

SMILES: Cc1cn(-c2cc(NC(=O)c3ccc(C)c(Nc4nccc(-c5cccnc5)n4)c3)cc(C(F)(F)F)c2)cn1 [Nilotinib] + Nc1ncn([C@H]2C[C@H](O)[C@@H](CO)O2)c(=O)n1 [Decitabine] (partner 2 µM)
- relative viability ([1]; first compound 0.001 µM): 0.787
- relative viability ([1]; first compound 0.003162 µM): 0.727
- relative viability ([1]; first compound 0.01 µM): 0.622
- relative viability ([1]; first compound 0.03162 µM): 0.801
- relative viability ([1]; first compound 0.1 µM): 0.516
- relative viability ([2]; first compound 0.001 µM): 0.445
- relative viability ([2]; first compound 0.003162 µM): 0.493
- relative viability ([2]; first compound 0.01 µM): 0.464
- relative viability ([2]; first compound 0.03162 µM): 0.482
- relative viability ([2]; first compound 0.1 µM): 0.601
- relative viability ([3]; first compound 0.001 µM): 0.922
- relative viability ([3]; first compound 0.003162 µM): 0.945
- relative viability ([3]; first compound 0.01 µM): 0.969
- relative viability ([3]; first compound 0.1 µM): 0.918
- relative viability ([4]; first compound 0.001 µM): 0.909
- relative viability ([4]; first compound 0.003162 µM): 1.11
- relative viability ([4]; first compound 0.01 µM): 0.905
- relative viability ([4]; first compound 0.03162 µM): 0.999
- relative viability ([4]; first compound 0.1 µM): 0.436
- relative viability ([5]; first compound 0.001 µM): 0.363
- relative viability ([5]; first compound 0.003162 µM): 0.447
- relative viability ([5]; first compound 0.01 µM): 0.391
- relative viability ([5]; first compound 0.03162 µM): 0.551
- relative viability ([5]; first compound 0.1 µM): 0.61
- relative viability ([6]; first compound 0.001 µM): 0.355
- relative viability ([6]; first compound 0.003162 µM): 0.381
- relative viability ([6]; first compound 0.01 µM): 0.382
- relative viability ([6]; first compound 0.03162 µM): 0.408
- relative viability ([6]; first compound 0.1 µM): 0.418
- relative viability ([7]; first compound 0.001 µM): 0.562
- relative viability ([7]; first compound 0.003162 µM): 0.632
- relative viability ([7]; first compound 0.01 µM): 0.625
- relative viability ([7]; first compound 0.03162 µM): 0.545
- relative viability ([7]; first compound 0.1 µM): 0.671
- relative viability ([8]; first compound 0.001 µM): 0.462
- relative viability ([8]; first compound 0.003162 µM): 0.621
- relative viability ([8]; first compound 0.01 µM): 0.579
- relative viability ([8]; first compound 0.03162 µM): 0.588
- relative viability ([8]; first compound 0.1 µM): 0.757
- relative viability ([9]; first compound 0.001 µM): 0.572
- relative viability ([9]; first compound 0.003162 µM): 0.734
- relative viability ([9]; first compound 0.01 µM): 0.689
- relative viability ([9]; first compound 0.03162 µM): 0.535
- relative viability ([9]; first compound 0.1 µM): 0.288
- relative viability ([10]; first compound 0.001 µM): 0.698
- relative viability ([10]; first compound 0.01 µM): 0.697
- relative viability ([10]; first compound 0.03162 µM): 0.606
- relative viability ([10]; first compound 0.1 µM): 0.613
- relative viability ([11]; first compound 0.001 µM): 0.742
- relative viability ([11]; first compound 0.003162 µM): 0.81
- relative viability ([11]; first compound 0.01 µM): 0.78
- relative viability ([11]; first compound 0.03162 µM): 0.961
- relative viability ([11]; first compound 0.1 µM): 0.846
- relative viability ([12]; first compound 0.001 µM): 0.463
- relative viability ([12]; first compound 0.003162 µM): 0.691
- relative viability ([12]; first compound 0.01 µM): 0.66
- relative viability ([12]; first compound 0.03162 µM): 0.403
- relative viability ([12]; first compound 0.1 µM): 0.633
- relative viability ([13]; first compound 0.001 µM): 0.496
- relative viability ([13]; first compound 0.003162 µM): 0.694
- relative viability ([13]; first compound 0.01 µM): 0.658
- relative viability ([13]; first compound 0.03162 µM): 0.517
- relative viability ([13]; first compound 0.1 µM): 0.62
- relative viability ([14]; first compound 0.001 µM): 0.591
- relative viability ([14]; first compound 0.003162 µM): 0.619
- relative viability ([14]; first compound 0.01 µM): 0.675
- relative viability ([14]; first compound 0.03162 µM): 0.794
- relative viability ([14]; first compound 0.1 µM): 0.76
- relative viability ([15]; first compound 0.001 µM): 0.202
- relative viability ([15]; first compound 0.003162 µM): 0.244
- relative viability ([15]; first compound 0.01 µM): 0.261
- relative viability ([15]; first compound 0.03162 µM): 0.18
- relative viability ([15]; first compound 0.1 µM): 0.131
- relative viability ([16]; first compound 0.001 µM): 0.488
- relative viability ([16]; first compound 0.003162 µM): 0.553
- relative viability ([16]; first compound 0.01 µM): 0.539
- relative viability ([16]; first compound 0.03162 µM): 0.56
- relative viability ([16]; first compound 0.1 µM): 0.649
- relative viability ([17]; first compound 0.001 µM): 0.443
- relative viability ([17]; first compound 0.003162 µM): 0.648
- relative viability ([17]; first compound 0.01 µM): 0.56
- relative viability ([17]; first compound 0.03162 µM): 0.325
- relative viability ([17]; first compound 0.1 µM): 0.306
- relative viability ([18]; first compound 0.001 µM): 0.473
- relative viability ([18]; first compound 0.003162 µM): 0.653
- relative viability ([18]; first compound 0.01 µM): 0.613
- relative viability ([18]; first compound 0.03162 µM): 0.564
- relative viability ([18]; first compound 0.1 µM): 0.649
- relative viability ([19]; first compound 0.001 µM): 0.24
- relative viability ([19]; first compound 0.003162 µM): 0.263
- relative viability ([19]; first compound 0.01 µM): 0.27
- relative viability ([19]; first compound 0.03162 µM): 0.304
- relative viability ([19]; first compound 0.1 µM): 0.266
- relative viability ([20]; first compound 0.001 µM): 0.409
- relative viability ([20]; first compound 0.003162 µM): 0.487
- relative viability ([20]; first compound 0.01 µM): 0.575
- relative viability ([20]; first compound 0.03162 µM): 0.617
- relative viability ([20]; first compound 0.1 µM): 0.46

SMILES: CN1CCN(CCOc2cc(OC3CCOCC3)c3c(Nc4c(Cl)ccc5c4OCO5)ncnc3c2)CC1 [Saracatinib] + Nc1ncn([C@H]2C[C@H](O)[C@@H](CO)O2)c(=O)n1 [Decitabine] (partner 2 µM)
- relative viability ([1]; first compound 0.02 µM): 0.834
- relative viability ([1]; first compound 0.2 µM): 0.778
- relative viability ([1]; first compound 0.6325 µM): 0.747
- relative viability ([1]; first compound 2 µM): 0.628
- relative viability ([2]; first compound 0.02 µM): 0.44
- relative viability ([2]; first compound 0.2 µM): 0.385
- relative viability ([2]; first compound 0.6325 µM): 0.419
- relative viability ([2]; first compound 2 µM): 0.335
- relative viability ([3]; first compound 0.02 µM): 0.964
- relative viability ([3]; first compound 0.2 µM): 0.854
- relative viability ([3]; first compound 0.6325 µM): 0.994
- relative viability ([3]; first compound 2 µM): 0.94
- relative viability ([4]; first compound 0.02 µM): 0.857
- relative viability ([4]; first compound 0.2 µM): 0.807
- relative viability ([4]; first compound 0.6325 µM): 0.678
- relative viability ([4]; first compound 2 µM): 0.658
- relative viability ([5]; first compound 0.02 µM): 0.327
- relative viability ([5]; first compound 0.2 µM): 0.314
- relative viability ([5]; first compound 0.6325 µM): 0.387
- relative viability ([5]; first compound 2 µM): 0.36
- relative viability ([6]; first compound 0.02 µM): 0.345
- relative viability ([6]; first compound 0.2 µM): 0.35
- relative viability ([6]; first compound 0.6325 µM): 0.358
- relative viability ([6]; first compound 2 µM): 0.354
- relative viability ([7]; first compound 0.02 µM): 0.608
- relative viability ([7]; first compound 0.2 µM): 0.601
- relative viability ([7]; first compound 0.6325 µM): 0.64
- relative viability ([7]; first compound 2 µM): 0.622
- relative viability ([8]; first compound 0.02 µM): 0.428
- relative viability ([8]; first compound 0.2 µM): 0.519
- relative viability ([8]; first compound 0.6325 µM): 0.431
- relative viability ([8]; first compound 2 µM): 0.365
- relative viability ([9]; first compound 0.02 µM): 0.734
- relative viability ([9]; first compound 0.2 µM): 0.375
- relative viability ([9]; first compound 0.6325 µM): 0.667
- relative viability ([9]; first compound 2 µM): 0.626
- relative viability ([10]; first compound 0.02 µM): 0.797
- relative viability ([10]; first compound 0.2 µM): 0.671
- relative viability ([10]; first compound 0.6325 µM): 0.846
- relative viability ([10]; first compound 2 µM): 0.756
- relative viability ([11]; first compound 0.02 µM): 0.711
- relative viability ([11]; first compound 0.2 µM): 0.604
- relative viability ([11]; first compound 0.6325 µM): 0.72
- relative viability ([11]; first compound 2 µM): 0.691
- relative viability ([12]; first compound 0.02 µM): 0.597
- relative viability ([12]; first compound 0.2 µM): 0.464
- relative viability ([12]; first compound 0.6325 µM): 0.687
- relative viability ([12]; first compound 2 µM): 0.522
- relative viability ([13]; first compound 0.02 µM): 0.63
- relative viability ([13]; first compound 0.2 µM): 1.43
- relative viability ([13]; first compound 0.6325 µM): 0.521
- relative viability ([13]; first compound 2 µM): 0.556
- relative viability ([14]; first compound 0.02 µM): 0.531
- relative viability ([14]; first compound 0.2 µM): 0.478
- relative viability ([14]; first compound 0.6325 µM): 0.602
- relative viability ([14]; first compound 2 µM): 0.469
- relative viability ([15]; first compound 0.02 µM): 0.322
- relative viability ([15]; first compound 0.2 µM): 0.226
- relative viability ([15]; first compound 0.6325 µM): 0.27
- relative viability ([15]; first compound 2 µM): 0.293
- relative viability ([16]; first compound 0.02 µM): 0.453
- relative viability ([16]; first compound 0.2 µM): 0.412
- relative viability ([16]; first compound 0.6325 µM): 0.452
- relative viability ([16]; first compound 2 µM): 0.415
- relative viability ([17]; first compound 0.02 µM): 0.457
- relative viability ([17]; first compound 0.2 µM): 0.242
- relative viability ([17]; first compound 0.6325 µM): 0.423
- relative viability ([17]; first compound 2 µM): 0.32
- relative viability ([18]; first compound 0.02 µM): 0.544
- relative viability ([18]; first compound 0.2 µM): 0.499
- relative viability ([18]; first compound 0.6325 µM): 0.434
- relative viability ([18]; first compound 2 µM): 0.346
- relative viability ([19]; first compound 0.02 µM): 0.219
- relative viability ([19]; first compound 0.2 µM): 0.182
- relative viability ([19]; first compound 0.6325 µM): 0.158
- relative viability ([19]; first compound 2 µM): 0.118
- relative viability ([20]; first compound 0.02 µM): 0.353
- relative viability ([20]; first compound 0.2 µM): 0.352
- relative viability ([20]; first compound 0.6325 µM): 0.36
- relative viability ([20]; first compound 2 µM): 0.203
